Values quoted from earlier work in patent US20180193304A1, “PHYTOTERPENOID FACILITATION OF THERAPEUTIC ONSET AND EFFICACY OF SUBLINGUAL CANNABINOID ADMINISTRATION” (JC Pharma Inc., priority 2017, published 2018).

Legend:
inflammation [1] = conditions: mouse, in vivo
[2] = tested on: experimental airways allergic inflammation; conditions: oral
inflammation [3] = conditions: compared to steroid alternatives
CB2 receptor [4] = target: T1, CB2 receptor (Homo sapiens, UniProt P34972)
CB2 receptor [5] = target: T1, CB2 receptor; remark: listed apart in the source

T1 sequence (P34972 whole entry): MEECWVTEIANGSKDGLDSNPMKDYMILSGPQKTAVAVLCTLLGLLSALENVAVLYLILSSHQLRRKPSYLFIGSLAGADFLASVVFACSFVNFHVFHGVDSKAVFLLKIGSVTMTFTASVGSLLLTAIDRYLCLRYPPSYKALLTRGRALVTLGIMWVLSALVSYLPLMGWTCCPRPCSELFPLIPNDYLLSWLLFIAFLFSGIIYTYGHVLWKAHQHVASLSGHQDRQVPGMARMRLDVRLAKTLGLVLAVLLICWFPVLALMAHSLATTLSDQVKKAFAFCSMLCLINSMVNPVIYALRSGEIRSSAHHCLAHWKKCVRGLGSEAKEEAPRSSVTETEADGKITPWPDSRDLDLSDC

Row | SMILES | reduction of inflammation and pain relief (inflammation [1]) | reduction of inflammation [2] | anti-inflammatory response (inflammation [3]) | functional activity at CB2 receptor (CB2 receptor [4]) | binding to the CB2 receptor (CB2 receptor [5])
1 | C/C1=C\CC/C(C)=C/CC(C)(C)/C=C/C1 [humulene] | effective in reducing inflammation and offering pain relief | highly effective at reducing inflammation | comparable anti-inflammatory responses to steroid alternatives | – | –
2 | C=C1CC/C=C(\C)CC[C@@H]2[C@@H]1CC2(C)C [β-caryophyllene] | – | – | comparable anti-inflammatory responses to steroid alternatives | functional CB2 agonist | selectively binds to the CB2 receptor
